The values below come from patent US8785488B2 (Exelixis Patent Company LLC, priority 2009, dated 2014).

Usually EC50 stands for the concentration giving half of the maximal effect.

One assay concerns the target T1, human TGR5 (h-TGR5) (Homo sapiens, UniProt Q8TDU6).
T1 construct: expressed in transfected cells
T1 sequence (Q8TDU6 1-330): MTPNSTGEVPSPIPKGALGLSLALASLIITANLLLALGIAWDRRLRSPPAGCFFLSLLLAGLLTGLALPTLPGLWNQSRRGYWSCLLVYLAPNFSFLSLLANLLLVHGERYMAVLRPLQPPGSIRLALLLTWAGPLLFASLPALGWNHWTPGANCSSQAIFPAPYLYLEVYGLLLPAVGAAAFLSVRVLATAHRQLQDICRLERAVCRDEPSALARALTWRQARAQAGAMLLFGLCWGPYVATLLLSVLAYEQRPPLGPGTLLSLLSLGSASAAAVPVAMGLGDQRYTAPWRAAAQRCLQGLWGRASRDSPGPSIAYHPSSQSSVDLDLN
The experiment in a line: TGR5/CRE-Luciferiase Assay (HEK 293 hTGR5/CRE-Luc cells). It counts as cell-based. As to conditions: h-TGR5 CRE-Luc EC50, Table 1; read-out: CRE-Luc (EC50). The method, boiled down: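 HEK293 cells stably carrying hTGR5 and a CRE-luciferase reporter were exposed to serially diluted compounds (diluted in DMEM with 5% DMSO) for 6 h. Cells were then lysed in luciferase buffer, luminescence was read, and EC50 values were derived from dose-response curves.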

The target in a further assay is T2, h-TGR5 (Homo sapiens, UniProt Q8TDU6).
T2 construct: expressed in transfected cells
T2 sequence (Q8TDU6 1-330): T1 sequence (Q8TDU6 1-330)
The experiment in a line: TGR5 cAMP Assay using Cisbio cAMP Dynamic2 htrf kit (hTGR5CRE-luc HEK 293 cells). It counts as cell-based. As to conditions: h-TGR5 cAMP EC50, Table 1; read-out: cAMP (EC50). On the procedure: Compounds were diluted in DPBS with 5% DMSO (8-point serial dilution by half logs) in a 96-well plate and 1 μL was transferred to a 384-well assay plate in quadruplicate. The d2-cAMP and anti-cAMP Ab-cryptate stock solution were prepared as per the instructions in the Cisbio™ (Bedford, Mass.) kit. […] Cells were adjusted to 0.44×10^6 cells/ml followed by addition of IBMX to a final concentration of 0.5 mM. The cells were then mixed with d2-cAMP solution (7.1 mL cells+100 ul d2-cAMP) and 4000 cells (9 μL) were transferred to each well of the 384-well assay plate. Cells without d2-cAMP were added to eight wells as a negative control. The plate was covered and incubated at room temp for 30 min. Then 10 μL of Ab-cryptate solution was added to each well of the assay plate and incubated for 1 hr. The plate was read on an EnVision™ plate reader (Perkin-Elmer, Waltham, Mass.) and the DeltaF value was calculated as per the instructions in the Cisbio™ kit.
In the following tables, EC50 values determined according to the TGR5 cAMP Assay described herein (cAMP); EC50 values determined according to the TGR5/CRE-Luciferiase Assay described herein (CRE-Luc). […] The following compounds in Tables 1 and 2 were made by using procedures described in the above Schemes and Examples, and, where applicable, by making any necessary substitutions of known materials that one skilled in the art would ordinarily understand how to do.

On to `CC(C)(c1ccc(Cl)c(Cl)c1)c1cnc(SCc2ccc(F)c(S(N)(=O)=O)c2)n1-c1ccc(F)cc1` [5-[({5-[1-(3,4-dichlorophenyl)-1-methylethyl]-1-(4-fluorophenyl)-1H-imidazol-2-yl}thio)methyl]-2-fluorobenzenesulfonamide], for which the EC50 at human TGR5 (h-TGR5) was below 100 nM; at h-TGR5, 100 to 1000 nM.

As for `COc1cc(C(C)(C)c2cnc(SCc3ccc(S(=O)(=O)NC(=O)N4CCC(O)C4)cc3Cl)n2-c2ccc(F)cc2)ccc1Cl` (stereo not shown) [N-{[3-chloro-4-({[5-{1-[4-chloro-3-(methyloxy)phenyl]-1-methylethyl}-1-(4-fluorophenyl)-1H-imidazol-2-yl]thio}methyl)phenyl]sulfonyl}-3-hydroxypyrrolidine-1-carboxamide], the half-maximal effective concentration (EC50) was 1000 to 10000 nM on human TGR5 (h-TGR5) and below 100 nM at h-TGR5.

Take `COc1ccc(C(C)(C)c2cnc(SCc3ccc(Cl)c(C(=O)O)c3)n2-c2ccc(F)cc2)cc1Cl` [2-chloro-5-({[5-{1-[3-chloro-4-(methyloxy)phenyl]-1-methylethyl}-1-(4-fluorophenyl)-1H-imidazol-2-yl]thio}methyl)benzoic acid]: the 50% effective concentration (EC50) at human TGR5 (h-TGR5) and on h-TGR5 was 100 to 1000 nM in each case.

With `CC(C)(c1ccc(F)c(Cl)c1)c1cnc(SCc2c(F)cccc2Cl)n1-c1ccc(F)cc1` [5-[1-(3-chloro-4-fluorophenyl)-1-methylethyl]-2-{[(2-chloro-6-fluorophenyl)methyl]thio}-1-(4-fluorophenyl)-1H-imidazole], the EC50 was below 100 nM on human TGR5 (h-TGR5) and 100 to 1000 nM at h-TGR5.

In the case of `COc1cc(C(C)(C)c2cnc(SCc3c(F)cc(S(=O)(=O)O)cc3Cl)n2-c2ccc(F)cc2)ccc1Cl` [3-chloro-4-({[5-{1-[4-chloro-3-(methyloxy)phenyl]-1-methylethyl}-1-(4-fluorophenyl)-1H-imidazol-2-yl]thio}methyl)-5-fluorobenzenesulfonic acid], the EC50 at human TGR5 (h-TGR5) and on h-TGR5 was below 100 nM each time.

On to `COc1cc(C(C)(C)c2cnc(SCc3c(F)cc(C(=O)NCS(=O)(=O)O)cc3F)n2-c2ccc(F)cc2)ccc1Cl` [({[4-({[5-{1-[4-chloro-3-(methyloxy)phenyl]-1-methylethyl}-1-(4-fluorophenyl)-1H-imidazol-2-yl]thio}methyl)-3,5-difluorophenyl]carbonyl}amino)methanesulfonic acid], for which the EC50 on human TGR5 (h-TGR5) and at h-TGR5 was below 100 nM throughout.

With `COc1cc(-n2c(C(C)(C)c3ccc(Cl)c(OC)c3)cnc2SCc2ccc(S(=O)(=O)NC(=O)NN3CCCC3)cc2Cl)ccc1F` [3-chloro-4-{[(5-{1-[4-chloro-3-(methyloxy)phenyl]-1-methylethyl}-1-[4-fluoro-3-(methyloxy)phenyl]-1H-imidazol-2-yl)thio]methyl}-N-[(pyrrolidin-1-ylamino)carbonyl]benzenesulfonamide], the EC50 at human TGR5 (h-TGR5) and at h-TGR5 was below 100 nM throughout.

Turning to `CC(=O)N1CCC(CSc2ncc(C(C)(C)c3ccc(Cl)c(Cl)c3)n2-c2ccc(F)cc2)CC1` [1-acetyl-4-[({5-[1-(3,4-dichlorophenyl)-1-methylethyl]-1-(4-fluorophenyl)-1H-imidazol-2-yl}thio)methyl]piperidine], the values for the EC50 on human TGR5 (h-TGR5) and on h-TGR5 were below 100 nM and 100 to 1000 nM, respectively.

With `CC(C)(c1ccc(Cl)c(Cl)c1)c1cnc(SCc2ccc(S(N)(=O)=O)cc2F)n1-c1ccc(F)cc1` [4-[({5-[1-(3,4-dichlorophenyl)-1-methylethyl]-1-(4-fluorophenyl)-1H-imidazol-2-yl}thio)methyl]-3-fluorobenzenesulfonamide], the 50% effective concentration (EC50) on human TGR5 (h-TGR5) and at h-TGR5 was 100 to 1000 nM each time.

`CC(C)(c1ccc(S(N)(=O)=O)c(Cl)c1)c1cnc(SCc2c(F)cc(C(=O)O)cc2Cl)n1-c1ccc(F)cc1` [4-({[5-{1-[4-(aminosulfonyl)-3-chlorophenyl]-1-methylethyl}-1-(4-fluorophenyl)-1H-imidazol-2-yl]thio}methyl)-3-chloro-5-fluorobenzoic acid]: the EC50 on human TGR5 (h-TGR5) and on h-TGR5 was below 100 nM throughout.

In the case of `COc1cc(C(C)(C)c2cnc(SCc3c(F)cc(S(=O)(=O)NC(=O)NN4CCOCC4)cc3F)n2-c2ccc(F)cc2)ccc1Cl` [4-({[5-{1-[4-chloro-3-(methyloxy)phenyl]-1-methylethyl}-1-(4-fluorophenyl)-1H-imidazol-2-yl]thio}methyl)-3,5-difluoro-N-[(morpholin-4-ylamino)carbonyl]benzenesulfonamide], the EC50 at human TGR5 (h-TGR5) and at h-TGR5 was below 100 nM each time.

`COc1ccc(C(C)(C)c2cnc(SCc3ccc(S(=O)(=O)NC(=O)NC(C)C)cc3Cl)n2-c2ccc(F)cc2)cc1Cl` [3-chloro-4-({[5-{1-[3-chloro-4-(methyloxy)phenyl]-1-methylethyl}-1-(4-fluorophenyl)-1H-imidazol-2-yl]thio}methyl)-N-{[(1-methylethyl)amino]carbonyl}benzenesulfonamide]: the EC50 at human TGR5 (h-TGR5) and at h-TGR5 was 100 to 1000 nM each time.

`CC(C)(c1ccc(Cl)c(Cl)c1)c1cnc(SCc2c(F)cc(C(=O)NO)cc2F)n1-c1ccc(F)cc1` [4-[({5-[1-(3,4-dichlorophenyl)-1-methylethyl]-1-(4-fluorophenyl)-1H-imidazol-2-yl}thio)methyl]-3,5-difluoro-N-hydroxybenzamide]: the EC50 at human TGR5 (h-TGR5) and at h-TGR5 was below 100 nM each time.

As for `COc1cc(C(C)(C)c2cnc(SCc3ccc(C(=O)NCCS(=O)(=O)O)cc3F)n2-c2ccc(F)cc2)ccc1Cl` [2-({[4-({[5-{1-[4-chloro-3-(methyloxy)phenyl]-1-methylethyl}-1-(4-fluorophenyl)-1H-imidazol-2-yl]thio}methyl)-3-fluorophenyl]carbonyl}amino)ethanesulfonic acid], the EC50 on human TGR5 (h-TGR5) and at h-TGR5 was below 100 nM in each case.

As to `COc1cc(-n2c(C(C)(C)c3ccc(S(N)(=O)=O)c(Cl)c3)cnc2SCc2ccc(S(N)(=O)=O)cc2Cl)ccc1F` [4-(1-{2-({[4-(aminosulfonyl)-2-chlorophenyl]methyl}thio)-1-[4-fluoro-3-(methyloxy)phenyl]-1H-imidazol-5-yl}-1-methylethyl)-2-chlorobenzenesulfonamide], the EC50 on human TGR5 (h-TGR5) and on h-TGR5 was below 100 nM in each case.

Regarding `COc1cc(-n2c(C(C)(C)c3ccc(Cl)c(Cl)c3)cnc2SCc2c(F)cc(C(=O)O)cc2F)ccc1F` [4-[({5-[1-(3,4-dichlorophenyl)-1-methylethyl]-1-[4-fluoro-3-(methyloxy)phenyl]-1H-imidazol-2-yl}thio)methyl]-3,5-difluorobenzoic acid], the concentration for a half-maximal effect (EC50) at human TGR5 (h-TGR5) and at h-TGR5 was below 100 nM each time.

For `CC(C)(c1ccc(S(N)(=O)=O)c(Cl)c1)c1cnc(SCc2ccc(S(=O)(=O)NC(=O)NN3CCOCC3)cc2Cl)n1-c1ccc(F)c(Cl)c1` [4-({[5-{1-[4-(aminosulfonyl)-3-chlorophenyl]-1-methylethyl}-1-(3-chloro-4-fluorophenyl)-1H-imidazol-2-yl]thio}methyl)-3-chloro-N-[(morpholin-4-ylamino)carbonyl]benzenesulfonamide], the 50% effective concentration (EC50) at human TGR5 (h-TGR5) and at h-TGR5 was 100 to 1000 nM in each case.

`COc1cc(C(C)(C)c2c(C)nc(SCc3c(F)cccc3Cl)n2-c2ccc(F)cc2)ccc1Cl` [2-{[(2-chloro-6-fluorophenyl)methyl]thio}-5-{1-[4-chloro-3-(methyloxy)phenyl]-1-methylethyl}-1-(4-fluorophenyl)-4-methyl-1H-imidazole]: the EC50 at human TGR5 (h-TGR5) and at h-TGR5 was 100 to 1000 nM each time.

On to `COc1cc(-n2c(C(C)(C)c3ccc(S(C)(=O)=O)c(Cl)c3)cnc2SCc2ccc(S(=O)(=O)NC(=O)NN3CCCC3)cc2Cl)ccc1F` [3-chloro-4-{[(5-{1-[3-chloro-4-(methylsulfonyl)phenyl]-1-methylethyl}-1-[4-fluoro-3-(methyloxy)phenyl]-1H-imidazol-2-yl)thio]methyl}-N-[(pyrrolidin-1-ylamino)carbonyl]benzenesulfonamide], for which the EC50 on human TGR5 (h-TGR5) and at h-TGR5 was 100 to 1000 nM in each case.

Regarding `COc1cc(C(C)(C)c2cnc(SCc3ccc(C(=O)NCS(=O)(=O)O)cc3F)n2-c2ccc(F)cc2)ccc1Cl` [({[4-({[5-{1-[4-chloro-3-(methyloxy)phenyl]-1-methylethyl}-1-(4-fluorophenyl)-1H-imidazol-2-yl]thio}methyl)-3-fluorophenyl]carbonyl}amino)methanesulfonic acid], the EC50 on human TGR5 (h-TGR5) and at h-TGR5 was below 100 nM in each case.
